We go through six compounds from article PMC10818749, “Toxicity Studies of Cardiac-Targeting Peptide Reveal a Robust Safety Profile” (Pharmaceutics, 2024).

In one series the target is CHO-KCNQ1/minK (Homo sapiens, UniProt P15382+P51787). To be noted: read-out: Estimated IC50 (reference compound); antagonist mode; Qube APC (1 conc.).
The target of the next series is T1, HEK-Kir2.1 (Homo sapiens, UniProt P63252).
T1 construct: host or cells: HEK
Format: cell-based. To be noted: read-out: Estimated IC50 (reference compound).

The target of a further series is HEK-Kv4.3/KChIP2 (Homo sapiens, UniProt Q9NS61+Q9UK17). Put plainly: cell-based.
In series [1] the target is T2, HEK-Nav1.5 (Late, Antagonist) (Homo sapiens, UniProt Q14524).
T2 construct: CYL7004QB2DR (late); host or cells: HEK
The class given is cell-based. To be noted: antagonist mode; Qube APC (1 conc.); late current, 50nM ATXII; read-out: Estimated IC50 (reference compound).

For another series, the system named is cancer cell lines. To be noted: ref Saar and colleagues; cited from earlier work.
Series [2] deals with leukemia and peripheral blood monocyte cell line. Further details: method as in PMID 16137634. To be noted: 5 and 10 µM; ref [51]; cited from earlier work.

Sequence of HEK-Kv4.3/KChIP2 (Q9UK17 whole entry): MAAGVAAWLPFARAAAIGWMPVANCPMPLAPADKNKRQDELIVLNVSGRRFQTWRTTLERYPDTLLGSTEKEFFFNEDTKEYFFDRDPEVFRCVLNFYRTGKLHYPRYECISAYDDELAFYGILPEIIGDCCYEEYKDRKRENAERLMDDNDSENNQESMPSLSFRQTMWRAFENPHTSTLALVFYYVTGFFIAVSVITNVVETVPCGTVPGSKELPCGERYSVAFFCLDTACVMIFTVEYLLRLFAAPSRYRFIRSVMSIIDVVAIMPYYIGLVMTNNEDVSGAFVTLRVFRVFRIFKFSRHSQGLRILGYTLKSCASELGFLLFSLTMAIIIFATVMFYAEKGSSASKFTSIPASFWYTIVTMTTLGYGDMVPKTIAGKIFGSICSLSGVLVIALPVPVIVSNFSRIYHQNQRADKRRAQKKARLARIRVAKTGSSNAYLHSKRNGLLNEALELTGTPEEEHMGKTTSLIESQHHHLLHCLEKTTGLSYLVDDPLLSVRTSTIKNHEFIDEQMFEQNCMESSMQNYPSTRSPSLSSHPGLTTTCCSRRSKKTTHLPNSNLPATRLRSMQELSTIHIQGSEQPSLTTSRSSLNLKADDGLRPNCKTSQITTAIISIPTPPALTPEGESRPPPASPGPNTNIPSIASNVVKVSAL
Sequence of HEK-Kv4.3/KChIP2 (Q9NS61 whole entry partner): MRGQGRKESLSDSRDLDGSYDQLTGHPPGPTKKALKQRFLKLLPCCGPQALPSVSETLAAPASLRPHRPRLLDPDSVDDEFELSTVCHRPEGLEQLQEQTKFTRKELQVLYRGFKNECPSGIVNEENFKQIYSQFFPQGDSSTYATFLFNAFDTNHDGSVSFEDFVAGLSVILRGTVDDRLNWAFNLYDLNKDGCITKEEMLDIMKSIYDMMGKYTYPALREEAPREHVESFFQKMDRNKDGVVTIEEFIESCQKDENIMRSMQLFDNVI
T2 sequence (Q14524 whole entry): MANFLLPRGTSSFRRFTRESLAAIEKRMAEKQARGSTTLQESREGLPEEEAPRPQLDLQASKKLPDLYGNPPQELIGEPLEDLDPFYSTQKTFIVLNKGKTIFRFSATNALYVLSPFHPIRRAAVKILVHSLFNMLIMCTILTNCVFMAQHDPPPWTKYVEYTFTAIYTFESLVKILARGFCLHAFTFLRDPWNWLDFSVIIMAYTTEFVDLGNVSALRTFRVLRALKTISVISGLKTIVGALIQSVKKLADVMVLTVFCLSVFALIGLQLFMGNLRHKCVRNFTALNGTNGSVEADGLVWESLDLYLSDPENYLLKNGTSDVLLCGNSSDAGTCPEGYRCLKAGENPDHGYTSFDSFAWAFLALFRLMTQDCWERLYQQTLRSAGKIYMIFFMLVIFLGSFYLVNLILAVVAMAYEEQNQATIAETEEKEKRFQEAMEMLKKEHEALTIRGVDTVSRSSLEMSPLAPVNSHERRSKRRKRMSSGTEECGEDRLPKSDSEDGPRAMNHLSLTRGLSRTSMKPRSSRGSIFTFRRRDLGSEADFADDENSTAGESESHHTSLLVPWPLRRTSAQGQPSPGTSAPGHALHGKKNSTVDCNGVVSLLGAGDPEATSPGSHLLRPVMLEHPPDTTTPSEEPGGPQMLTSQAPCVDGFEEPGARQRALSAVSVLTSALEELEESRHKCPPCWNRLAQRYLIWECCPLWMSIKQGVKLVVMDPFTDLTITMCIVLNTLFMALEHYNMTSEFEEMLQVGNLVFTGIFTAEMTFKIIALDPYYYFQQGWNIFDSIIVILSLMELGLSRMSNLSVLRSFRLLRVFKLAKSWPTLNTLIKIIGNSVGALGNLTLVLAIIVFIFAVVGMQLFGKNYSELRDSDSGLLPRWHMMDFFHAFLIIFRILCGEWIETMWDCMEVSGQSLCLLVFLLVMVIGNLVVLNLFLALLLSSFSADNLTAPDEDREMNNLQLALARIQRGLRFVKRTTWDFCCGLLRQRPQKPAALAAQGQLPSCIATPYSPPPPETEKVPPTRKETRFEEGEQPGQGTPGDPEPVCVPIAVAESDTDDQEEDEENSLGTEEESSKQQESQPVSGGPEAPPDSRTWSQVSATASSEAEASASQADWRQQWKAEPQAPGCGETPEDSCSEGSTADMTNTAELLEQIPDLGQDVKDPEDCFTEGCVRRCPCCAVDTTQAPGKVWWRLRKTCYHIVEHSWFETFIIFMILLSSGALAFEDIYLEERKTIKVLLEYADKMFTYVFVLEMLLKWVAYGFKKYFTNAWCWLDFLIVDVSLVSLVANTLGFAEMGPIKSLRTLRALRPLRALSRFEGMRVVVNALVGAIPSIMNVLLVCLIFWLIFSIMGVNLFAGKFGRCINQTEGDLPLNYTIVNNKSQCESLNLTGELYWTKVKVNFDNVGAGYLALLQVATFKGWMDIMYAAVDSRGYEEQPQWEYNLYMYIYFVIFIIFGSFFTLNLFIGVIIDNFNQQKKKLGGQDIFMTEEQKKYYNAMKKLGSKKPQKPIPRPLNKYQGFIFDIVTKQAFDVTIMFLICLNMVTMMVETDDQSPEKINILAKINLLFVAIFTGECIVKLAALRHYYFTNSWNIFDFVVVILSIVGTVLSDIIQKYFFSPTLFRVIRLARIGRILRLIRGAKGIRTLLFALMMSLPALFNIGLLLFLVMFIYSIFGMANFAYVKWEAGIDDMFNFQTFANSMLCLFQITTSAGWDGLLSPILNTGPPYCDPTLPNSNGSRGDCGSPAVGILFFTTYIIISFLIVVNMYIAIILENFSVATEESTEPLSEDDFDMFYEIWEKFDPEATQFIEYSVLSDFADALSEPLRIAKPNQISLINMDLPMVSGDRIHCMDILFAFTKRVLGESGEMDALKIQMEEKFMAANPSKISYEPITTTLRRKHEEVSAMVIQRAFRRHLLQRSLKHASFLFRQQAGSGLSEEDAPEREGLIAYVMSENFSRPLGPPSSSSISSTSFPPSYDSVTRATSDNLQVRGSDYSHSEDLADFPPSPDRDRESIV
T1 sequence (P63252 whole entry): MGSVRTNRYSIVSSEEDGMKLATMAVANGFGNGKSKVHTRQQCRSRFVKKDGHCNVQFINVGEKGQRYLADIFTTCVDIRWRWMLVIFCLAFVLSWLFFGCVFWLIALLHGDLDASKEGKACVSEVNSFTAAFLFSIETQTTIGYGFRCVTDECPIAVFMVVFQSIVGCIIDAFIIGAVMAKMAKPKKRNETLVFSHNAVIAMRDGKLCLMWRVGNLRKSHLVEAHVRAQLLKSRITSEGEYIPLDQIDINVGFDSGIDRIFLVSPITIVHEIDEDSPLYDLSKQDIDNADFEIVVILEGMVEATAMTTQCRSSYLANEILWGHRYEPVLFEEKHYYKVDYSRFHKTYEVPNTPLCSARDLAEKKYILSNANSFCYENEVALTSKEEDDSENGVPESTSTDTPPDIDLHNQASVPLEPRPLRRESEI

Consider `CCS(=O)(=O)N(C)[C@H]1c2cc(C#N)ccc2OC(C)(C)[C@@H]1O` (racemic) [Chromanol 293B, reference compound], for which, at CHO-KCNQ1/minK, the IC50 is 21.5 µM.
Turning to `[Ba+2].[Cl-].[Cl-]` [Barium Chloride, reference compound], the IC50 on HEK-Kir2.1 was 17.7 µM.
At HEK-Kv4.3/KChIP2, `O=C(NCC1CCCCN1)c1cc(OCC(F)(F)F)ccc1OCC(F)(F)F` (stereo not shown) [Flecainide] yielded an IC50 of 12.5 µM.
With `COc1ccccc1OCC(O)CN1CCN(CC(=O)Nc2c(C)cccc2C)CC1` (stereo not shown) [Ranolazine, reference compound], the IC50 in series [1] is 72.5 µM.
In the case of “pVEC: well-characterized, non-cell-specific CPP (TLLIILRRRIRKQAHAHS; UniProt P55284 615-632, looked up, fragment)”, the “membrane leakage of lactate dehydrogenase” value with cancer cell lines is “minimal membrane leakage of lactate dehydrogenase”.
As for transportan 10, the cytokine release result in series [2] was “no increase in cytokine levels”. Besides, in the series on cancer cell lines, the “membrane leakage of lactate dehydrogenase” value was “significant leakage”.
